# Like-named read-outs stand apart in the source and are kept apart here.
# Key:
# [1] = test system: cat fleas (Ctenocephalides felis); assay: Efficacy of various isoxazolines against cat fleas on mice (Example 3); assay type: in vivo; settings: Ctenocephalides felis, po, mice, oral 20 mg/kg, infested 1 hr after treatment, read-out: Flea inhibition relative to negative control
# Method: In this experiment, mice were randomly assigned to a treatment group or a negative control (untreated) group. Each group consisted of three mice. The mice in the treatment groups were orally administered 20 mg/kg bodyweight of various isoxazolines dissolved in 7% DMF-premix and 93% purified water (aqua ad injectabilia). The application volume of these treatments was 0.01 mL/g bodyweight. One hour after treatment, each mouse was sedated and generally infested (whole body) with 30 vital, adult fleas (C. felis). To achieve this, the sedated mice were placed into an infestation-jar, and the fleas were placed directly onto the fur. After approximately 30 minutes of feeding, fleas were recovered from the mice. Assessments for inhibition and mortality were conducted 1 hr, 24 hr, and 48 hr after each infestation. The efficacy was calculated as the percentage of inhibited fleas in the treatment groups relative to the negative control group.
# cat fleas (C. felis) [2] = assay: Further efficacy study against cat fleas on beagles (Example 6); assay type: in vivo, Ctenocephalides felis
# Method: (§1) Beagles were randomly assigned to 5 treatment groups of 4 animals each, and one untreated control group of 3 animals.
# (§2) The dogs were infested with approximately 80 fleas (C. felis) and 60 ticks (R. sanguineus) on Days −2, 7, 14, 21, 28, 35, 42, and 49. Fleas and ticks were counted on Day 2 (approximately 48 h after treatment), as well as Days 9, 16, 23, 30, 37, 44, and 51 (approximately 48 hr after each post-treatment re-infestation) to evaluate the insecticidal and acaricidal activity in the treated groups. In Group B, an additional flea and tick infestation was conducted on Day 56, with a respective flea and tick count on Day 58. In addition to the flea and tick counts, blood samples were collected before the treatments, as well as approximately 2 hr, 4 hr, 8 hr, 24 hr, and 72 hr after the treatment on Day Zero, and then once on each of Days 7, 14, 21, 28, 35, 42, 49, and 56. The concentration of Compound 11-1 in blood plasma was analyzed by HPLC/MS/MS. The LOQ of this method was 5 ng/ml.
# [3] = test system: brown dog ticks (R. sanguineus); assay: Efficacy against brown dog ticks on dogs (Example 5); assay type: in vivo, Rhipicephalus sanguineus; settings: beagles, Day 2 (approx. 48 hr after treatment)
# Method: (§3) On Day Zero, one group of 4 beagles was treated orally with gelatin capsules containing 20 mg/kg body weight of […]. Another group of 4 beagles was treated topically by washing with 2 L of solution containing 200 ppm body weight of […] dissolved in DMF-premix/tap water (1:100, based on volume). Finally, a group of 3 beagles remained untreated as the negative control. Two days before treatment on Day Zero, all the beagles were each infested with approximately 80 unfed adult fleas (C. felis) and approximately 60 unfed adult ticks (R. sanguineus). The parasite burden of each beagle was assessed on Day 2 (approximately 48 hr after the treatment) by removing and counting the fleas and ticks. Fleas and ticks were classified according to vitality (fleas: dead or alive; ticks: dead or alive, and engorged or not engorged). The efficacy was calculated from the mean number of vital fleas and ticks in the treated group (Mt) relative to the mean number of vital fleas and ticks in the untreated control group (Mc) using following formula: […]
# cat fleas (C. felis) [4] = assay: Efficacy against cat fleas on dogs (Example 5); assay type: in vivo, Ctenocephalides felis; settings: beagles, Day 2 (approx. 48 hr after treatment)
# Method: as §3
# [5] = test system: brown dog ticks (R. sanguineus); assay: Further efficacy study against brown dog ticks on beagles (Example 6); assay type: in vivo, Rhipicephalus sanguineus
# Method: as §1, §2
# [6] = Side effects in dogs (Example 5); assay type: in vivo; settings: beagles; oral 20 mg/kg or topical 200 ppm
# Method: as §3
# [7] = Group A: 1 mg/kg oral tablet, Day 2
# [8] = Group A: 1 mg/kg oral tablet, Day 9
# [9] = Group A: 1 mg/kg oral tablet, Day 16
# [10] = Group A: 1 mg/kg oral tablet, Day 23
# [11] = Group A: 1 mg/kg oral tablet, Day 30
# [12] = Group A: 1 mg/kg oral tablet, Day 37
# [13] = Group A: 1 mg/kg oral tablet, Day 44
# [14] = Group A: 1 mg/kg oral tablet, Day 51
# [15] = Group B: 1 mg/kg subcutaneous injectable solution, Day 2
# [16] = Group B: 1 mg/kg subcutaneous injectable solution, Day 9
# [17] = Group B: 1 mg/kg subcutaneous injectable solution, Day 16
# [18] = Group B: 1 mg/kg subcutaneous injectable solution, Day 23
# [19] = Group B: 1 mg/kg subcutaneous injectable solution, Day 30
# [20] = Group B: 1 mg/kg subcutaneous injectable solution, Day 37
# [21] = Group B: 1 mg/kg subcutaneous injectable solution, Day 44
# [22] = Group B: 1 mg/kg subcutaneous injectable solution, Day 51
# [23] = Group B: 1 mg/kg subcutaneous injectable solution, Day 58
# [24] = Group C: 1 mg/kg topical spot-on with absorption enhancer, Day 2
# [25] = Group C: 1 mg/kg topical spot-on with absorption enhancer, Day 9
# [26] = Group C: 1 mg/kg topical spot-on with absorption enhancer, Day 16
# [27] = Group C: 1 mg/kg topical spot-on with absorption enhancer, Day 23
# [28] = Group C: 1 mg/kg topical spot-on with absorption enhancer, Day 30
# [29] = Group C: 1 mg/kg topical spot-on with absorption enhancer, Day 37
# [30] = Group C: 1 mg/kg topical spot-on with absorption enhancer, Day 44
# [31] = Group C: 1 mg/kg topical spot-on with absorption enhancer, Day 51
# [32] = Group D: 1 mg/kg topical spot-on with absorption enhancer and spreading agent, Day 2
# [33] = Group D: 1 mg/kg topical spot-on with absorption enhancer and spreading agent, Day 9
# [34] = Group D: 1 mg/kg topical spot-on with absorption enhancer and spreading agent, Day 16
# [35] = Group D: 1 mg/kg topical spot-on with absorption enhancer and spreading agent, Day 23
# [36] = Group D: 1 mg/kg topical spot-on with absorption enhancer and spreading agent, Day 30
# [37] = Group D: 1 mg/kg topical spot-on with absorption enhancer and spreading agent, Day 37
# [38] = Group D: 1 mg/kg topical spot-on with absorption enhancer and spreading agent, Day 44
# [39] = Group D: 1 mg/kg topical spot-on with absorption enhancer and spreading agent, Day 51
# [40] = Group E: 1 mg/kg topical spot-on in ethyl lactate, Day 2
# [41] = Group E: 1 mg/kg topical spot-on in ethyl lactate, Day 9
# [42] = Group E: 1 mg/kg topical spot-on in ethyl lactate, Day 16
# [43] = Group E: 1 mg/kg topical spot-on in ethyl lactate, Day 23
# [44] = Group E: 1 mg/kg topical spot-on in ethyl lactate, Day 30
# [45] = Group E: 1 mg/kg topical spot-on in ethyl lactate, Day 37
# [46] = Group E: 1 mg/kg topical spot-on in ethyl lactate, Day 44
# [47] = Group E: 1 mg/kg topical spot-on in ethyl lactate, Day 51
# [48] = topical washing with 2 L of 200 ppm solution
compound,measurement,setting,value
"Cc1cc(C2=NOC(c3cc(Cl)cc(Cl)c3)(C(F)(F)F)C2)ccc1C(=O)NCC(=O)NCC(F)(F)F (racemic) [Compound 11-1, 4-[5-(3,5-dichlorophenyl)-5-trifluoromethyl-4,5-dihydroisoxazol-3-yl]-2-methyl-N-[(2,2,2-trifluoro-ethylcarbamoyl)-methyl]-benzamide]",pest or weed control at 20 mg/kg,"[1]; 1 h, 1 hr after infestation",78.9%
same,pest or weed control at 20 mg/kg,"[1]; 24 h, 24 hr after infestation",96.7%
same,pest or weed control at 20 mg/kg,"[1]; 48 h, 48 hr after infestation",97.8%
same,Efficacy against cat fleas,cat fleas (C. felis) [2]; [7],100
same,Efficacy against cat fleas,cat fleas (C. felis) [2]; [8],100
same,Efficacy against cat fleas,cat fleas (C. felis) [2]; [9],100
same,Efficacy against cat fleas,cat fleas (C. felis) [2]; [10],100
same,Efficacy against cat fleas,cat fleas (C. felis) [2]; [11],100
same,Efficacy against cat fleas,cat fleas (C. felis) [2]; [12],99.6
same,Efficacy against cat fleas,cat fleas (C. felis) [2]; [13],100
same,Efficacy against cat fleas,cat fleas (C. felis) [2]; [14],100
same,Efficacy against cat fleas,cat fleas (C. felis) [2]; [15],100
same,Efficacy against cat fleas,cat fleas (C. felis) [2]; [16],100
same,Efficacy against cat fleas,cat fleas (C. felis) [2]; [17],100
same,Efficacy against cat fleas,cat fleas (C. felis) [2]; [18],100
same,Efficacy against cat fleas,cat fleas (C. felis) [2]; [19],99.6
same,Efficacy against cat fleas,cat fleas (C. felis) [2]; [20],100
same,Efficacy against cat fleas,cat fleas (C. felis) [2]; [21],100
same,Efficacy against cat fleas,cat fleas (C. felis) [2]; [22],100
same,Efficacy against cat fleas,cat fleas (C. felis) [2]; [23],99.7
same,Efficacy against cat fleas,cat fleas (C. felis) [2]; [24],100
same,Efficacy against cat fleas,cat fleas (C. felis) [2]; [25],100
same,Efficacy against cat fleas,cat fleas (C. felis) [2]; [26],100
same,Efficacy against cat fleas,cat fleas (C. felis) [2]; [27],100
same,Efficacy against cat fleas,cat fleas (C. felis) [2]; [28],100
same,Efficacy against cat fleas,cat fleas (C. felis) [2]; [29],100
same,Efficacy against cat fleas,cat fleas (C. felis) [2]; [30],100
same,Efficacy against cat fleas,cat fleas (C. felis) [2]; [31],100
same,Efficacy against cat fleas,cat fleas (C. felis) [2]; [32],100
same,Efficacy against cat fleas,cat fleas (C. felis) [2]; [33],100
same,Efficacy against cat fleas,cat fleas (C. felis) [2]; [34],100
same,Efficacy against cat fleas,cat fleas (C. felis) [2]; [35],100
same,Efficacy against cat fleas,cat fleas (C. felis) [2]; [36],100
same,Efficacy against cat fleas,cat fleas (C. felis) [2]; [37],100
same,Efficacy against cat fleas,cat fleas (C. felis) [2]; [38],100
same,Efficacy against cat fleas,cat fleas (C. felis) [2]; [39],100
same,Efficacy against cat fleas,cat fleas (C. felis) [2]; [40],100
same,Efficacy against cat fleas,cat fleas (C. felis) [2]; [41],100
same,Efficacy against cat fleas,cat fleas (C. felis) [2]; [42],100
same,Efficacy against cat fleas,cat fleas (C. felis) [2]; [43],100
same,Efficacy against cat fleas,cat fleas (C. felis) [2]; [44],100
same,Efficacy against cat fleas,cat fleas (C. felis) [2]; [45],100
same,Efficacy against cat fleas,cat fleas (C. felis) [2]; [46],100
same,Efficacy against cat fleas,cat fleas (C. felis) [2]; [47],100
same,Tick efficacy,[3]; oral gelatin capsules 20 mg/kg,100%
same,Tick efficacy,[3]; [48],100%
same,Flea efficacy,cat fleas (C. felis) [4]; oral gelatin capsules 20 mg/kg,100%
same,Flea efficacy,cat fleas (C. felis) [4]; [48],100%
same,Efficacy against brown dog ticks,[5]; [7],99.4
same,Efficacy against brown dog ticks,[5]; [8],99.3
same,Efficacy against brown dog ticks,[5]; [9],98.3
same,Efficacy against brown dog ticks,[5]; [10],98.2
same,Efficacy against brown dog ticks,[5]; [11],98.9
same,Efficacy against brown dog ticks,[5]; [12],94.6
same,Efficacy against brown dog ticks,[5]; [13],82.0
same,Efficacy against brown dog ticks,[5]; [14],82.0
same,Efficacy against brown dog ticks,[5]; [15],100
same,Efficacy against brown dog ticks,[5]; [16],99.3
same,Efficacy against brown dog ticks,[5]; [17],100
same,Efficacy against brown dog ticks,[5]; [18],98.8
same,Efficacy against brown dog ticks,[5]; [19],99.5
same,Efficacy against brown dog ticks,[5]; [20],98.8
same,Efficacy against brown dog ticks,[5]; [21],95.1
same,Efficacy against brown dog ticks,[5]; [22],88.8
same,Efficacy against brown dog ticks,[5]; [23],74.0
same,Efficacy against brown dog ticks,[5]; [24],81.9
same,Efficacy against brown dog ticks,[5]; [25],98.7
same,Efficacy against brown dog ticks,[5]; [26],94.8
same,Efficacy against brown dog ticks,[5]; [27],98.2
same,Efficacy against brown dog ticks,[5]; [28],96.2
same,Efficacy against brown dog ticks,[5]; [29],87.0
same,Efficacy against brown dog ticks,[5]; [30],76.5
same,Efficacy against brown dog ticks,[5]; [31],55.3
same,Efficacy against brown dog ticks,[5]; [32],83.1
same,Efficacy against brown dog ticks,[5]; [33],96.1
same,Efficacy against brown dog ticks,[5]; [34],98.3
same,Efficacy against brown dog ticks,[5]; [35],98.2
same,Efficacy against brown dog ticks,[5]; [36],96.2
same,Efficacy against brown dog ticks,[5]; [37],94.1
same,Efficacy against brown dog ticks,[5]; [38],73.8
same,Efficacy against brown dog ticks,[5]; [39],63.4
same,Efficacy against brown dog ticks,[5]; [40],70.6
same,Efficacy against brown dog ticks,[5]; [41],90.2
same,Efficacy against brown dog ticks,[5]; [42],95.9
same,Efficacy against brown dog ticks,[5]; [43],91.5
same,Efficacy against brown dog ticks,[5]; [44],97.8
same,Efficacy against brown dog ticks,[5]; [45],89.2
same,Efficacy against brown dog ticks,[5]; [46],79.8
same,Efficacy against brown dog ticks,[5]; [47],59.6
same,Side effects,[6],No side effects were observed
